Where “and” joins values, the source holds several entries; their conditions need not be identical. Identical values can stand only once.
What was measured:
Assay in all cases: radiometric filter-binding kinase assay, Kinase HotSpot
Settings in all cases: compound 0.5 µM; ATP 10 µM
MAPK9 (human) = MAPK9 (human) (UniProt P45984)
PAK4 (human) = PAK4 (human) (UniProt O96013)
CLK4 (human) = CLK4 (human) (UniProt Q9HAZ1)
KIT (human) = KIT (human) (UniProt P10721)
WEE1 (human) = WEE1 (human) (UniProt P30291)
NTRK3 (human) = NTRK3 (human) (UniProt Q16288)
ADRBK2 (human) = ADRBK2 (human) (UniProt P35626)
PRKCE (human) = PRKCE (human) (UniProt Q02156)
NTRK1 (human) = NTRK1 (human) (UniProt P04629)
MAPKAPK2 (human) = MAPKAPK2 (human) (UniProt P49137)
CSNK1A1 (human) = CSNK1A1 (human) (UniProt P48729)
EPHB2 (human) = EPHB2 (human) (UniProt P29323)
MELK (human) = MELK (human) (UniProt Q14680)
STK16 (human) = STK16 (human) (UniProt O75716)
SRMS (human) = SRMS (human) (UniProt Q9H3Y6)
PRKG2 (human) = PRKG2 (human) (UniProt Q13237)
RPS6KA6 KD1 KD2 (human) = RPS6KA6 KD1 KD2 (human) (UniProt Q9UK32)
FGFR3 (human) = FGFR3 (human) (UniProt P22607)
PDGFRB (human) = PDGFRB (human) (UniProt P09619)
MLTK (human) = MLTK (human) (UniProt Q9NYL2)
PLK3 (human) = PLK3 (human) (UniProt Q9H4B4)
PRKD2 (human) = PRKD2 (human) (UniProt Q9BZL6)
NEK1 (human) = NEK1 (human) (UniProt Q96PY6)
AXL (human) = AXL (human) (UniProt P30530)
NTRK2 (human) = NTRK2 (human) (UniProt Q16620)
LYN (human) = LYN (human) (UniProt P07948)
TLK2 (human) = TLK2 (human) (UniProt Q86UE8)
TTK (human) = TTK (human) (UniProt P33981)
PHKG1 (human) = PHKG1 (human) (UniProt Q16816)
SRC (human) = SRC (human) (UniProt P12931)
MYO3B (human) = MYO3B (human) (UniProt Q8WXR4)
PTK2 (human) = PTK2 (human) (UniProt Q05397)
PTK6 (human) = PTK6 (human) (UniProt Q13882)
MAPK14 (human) = MAPK14 (human) (UniProt Q16539)
NEK2 (human) = NEK2 (human) (UniProt P51955)
BRSK1 (human) = BRSK1 (human) (UniProt Q8TDC3)
IRAK4 (human) = IRAK4 (human) (UniProt Q9NWZ3)
GRK4 (human) = GRK4 (human) (UniProt P32298)
CDK9 CCNT1 (human) = CDK9 CCNT1 (human) (UniProt P50750+O60563)
SLK (human) = SLK (human) (UniProt Q9H2G2)
MAPK3 (human) = MAPK3 (human) (UniProt P27361)
CLK3 (human) = CLK3 (human) (UniProt P49761)
Sequence of CLK3 (human) (P49761 whole entry, looked up): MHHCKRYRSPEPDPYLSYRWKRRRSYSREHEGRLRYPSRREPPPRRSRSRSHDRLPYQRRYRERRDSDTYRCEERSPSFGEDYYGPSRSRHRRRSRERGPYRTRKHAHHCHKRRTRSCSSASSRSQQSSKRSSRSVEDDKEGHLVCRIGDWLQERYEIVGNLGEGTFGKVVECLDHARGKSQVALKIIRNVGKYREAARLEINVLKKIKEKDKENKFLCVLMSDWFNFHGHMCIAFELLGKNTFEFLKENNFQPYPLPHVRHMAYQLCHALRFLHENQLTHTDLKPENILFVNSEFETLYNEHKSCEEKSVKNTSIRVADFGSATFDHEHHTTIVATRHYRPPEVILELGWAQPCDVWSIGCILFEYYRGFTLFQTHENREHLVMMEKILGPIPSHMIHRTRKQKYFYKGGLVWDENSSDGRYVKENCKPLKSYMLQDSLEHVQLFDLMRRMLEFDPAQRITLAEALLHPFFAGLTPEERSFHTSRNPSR

Sequence of KIT (human) (P10721 whole entry, looked up): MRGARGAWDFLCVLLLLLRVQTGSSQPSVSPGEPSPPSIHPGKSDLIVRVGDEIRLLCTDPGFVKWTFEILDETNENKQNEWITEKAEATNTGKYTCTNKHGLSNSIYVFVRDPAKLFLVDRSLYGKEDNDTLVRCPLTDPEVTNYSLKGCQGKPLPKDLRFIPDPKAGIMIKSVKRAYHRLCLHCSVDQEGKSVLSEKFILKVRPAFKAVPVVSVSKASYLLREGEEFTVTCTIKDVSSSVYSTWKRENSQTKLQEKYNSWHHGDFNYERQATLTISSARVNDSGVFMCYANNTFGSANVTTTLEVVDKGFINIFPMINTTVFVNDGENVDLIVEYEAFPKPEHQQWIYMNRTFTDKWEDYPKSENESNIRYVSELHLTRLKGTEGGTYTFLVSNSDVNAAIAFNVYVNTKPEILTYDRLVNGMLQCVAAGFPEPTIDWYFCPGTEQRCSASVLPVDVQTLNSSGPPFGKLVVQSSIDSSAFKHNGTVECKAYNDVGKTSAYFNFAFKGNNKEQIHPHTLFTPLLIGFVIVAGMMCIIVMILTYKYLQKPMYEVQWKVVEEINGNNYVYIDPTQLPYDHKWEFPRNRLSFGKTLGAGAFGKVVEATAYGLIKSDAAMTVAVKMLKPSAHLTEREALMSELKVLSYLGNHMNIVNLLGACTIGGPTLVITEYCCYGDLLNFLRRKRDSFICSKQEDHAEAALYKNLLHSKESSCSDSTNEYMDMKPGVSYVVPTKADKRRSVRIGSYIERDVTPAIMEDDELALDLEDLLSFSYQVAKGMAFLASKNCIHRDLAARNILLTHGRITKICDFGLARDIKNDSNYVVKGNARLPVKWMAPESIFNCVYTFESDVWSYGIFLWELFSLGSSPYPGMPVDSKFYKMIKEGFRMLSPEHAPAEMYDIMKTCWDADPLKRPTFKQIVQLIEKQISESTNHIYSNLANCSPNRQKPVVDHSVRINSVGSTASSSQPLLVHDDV
Sequence of MAPK9 (human) (P45984 whole entry, looked up): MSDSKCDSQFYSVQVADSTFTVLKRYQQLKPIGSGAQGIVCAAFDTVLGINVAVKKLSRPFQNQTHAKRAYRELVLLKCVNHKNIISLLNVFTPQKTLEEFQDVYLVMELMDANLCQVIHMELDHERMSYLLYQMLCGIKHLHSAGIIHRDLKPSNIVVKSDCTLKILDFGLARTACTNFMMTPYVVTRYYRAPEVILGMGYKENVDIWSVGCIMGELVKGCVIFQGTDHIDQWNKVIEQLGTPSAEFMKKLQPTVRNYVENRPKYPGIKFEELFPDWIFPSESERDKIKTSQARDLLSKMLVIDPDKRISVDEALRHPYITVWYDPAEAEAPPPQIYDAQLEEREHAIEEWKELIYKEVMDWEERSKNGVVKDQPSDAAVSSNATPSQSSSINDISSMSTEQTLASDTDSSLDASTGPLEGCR
Sequence of NTRK2 (human) (Q16620 whole entry, looked up): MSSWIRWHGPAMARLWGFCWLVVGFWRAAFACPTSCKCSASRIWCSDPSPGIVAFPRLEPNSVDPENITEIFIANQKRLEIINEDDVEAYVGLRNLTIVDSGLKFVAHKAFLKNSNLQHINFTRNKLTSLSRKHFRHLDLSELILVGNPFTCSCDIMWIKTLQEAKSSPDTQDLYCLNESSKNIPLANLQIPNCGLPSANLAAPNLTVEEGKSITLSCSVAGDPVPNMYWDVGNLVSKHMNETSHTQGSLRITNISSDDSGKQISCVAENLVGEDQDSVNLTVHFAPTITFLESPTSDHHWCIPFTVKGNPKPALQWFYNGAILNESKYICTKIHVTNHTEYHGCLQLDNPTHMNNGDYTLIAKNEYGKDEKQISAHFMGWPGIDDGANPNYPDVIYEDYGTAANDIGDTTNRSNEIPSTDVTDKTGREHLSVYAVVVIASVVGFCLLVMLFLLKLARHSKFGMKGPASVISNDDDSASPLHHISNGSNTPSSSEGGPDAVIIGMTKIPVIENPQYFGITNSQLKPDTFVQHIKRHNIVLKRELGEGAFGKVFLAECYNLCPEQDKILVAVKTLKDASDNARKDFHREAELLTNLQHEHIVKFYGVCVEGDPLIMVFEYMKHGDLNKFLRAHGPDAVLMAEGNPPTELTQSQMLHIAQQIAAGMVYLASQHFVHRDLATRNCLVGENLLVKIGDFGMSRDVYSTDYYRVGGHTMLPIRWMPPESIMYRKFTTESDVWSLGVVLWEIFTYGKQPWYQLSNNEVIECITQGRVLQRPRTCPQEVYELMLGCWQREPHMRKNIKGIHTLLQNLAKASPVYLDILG
Sequence of NTRK3 (human) (Q16288 whole entry, looked up): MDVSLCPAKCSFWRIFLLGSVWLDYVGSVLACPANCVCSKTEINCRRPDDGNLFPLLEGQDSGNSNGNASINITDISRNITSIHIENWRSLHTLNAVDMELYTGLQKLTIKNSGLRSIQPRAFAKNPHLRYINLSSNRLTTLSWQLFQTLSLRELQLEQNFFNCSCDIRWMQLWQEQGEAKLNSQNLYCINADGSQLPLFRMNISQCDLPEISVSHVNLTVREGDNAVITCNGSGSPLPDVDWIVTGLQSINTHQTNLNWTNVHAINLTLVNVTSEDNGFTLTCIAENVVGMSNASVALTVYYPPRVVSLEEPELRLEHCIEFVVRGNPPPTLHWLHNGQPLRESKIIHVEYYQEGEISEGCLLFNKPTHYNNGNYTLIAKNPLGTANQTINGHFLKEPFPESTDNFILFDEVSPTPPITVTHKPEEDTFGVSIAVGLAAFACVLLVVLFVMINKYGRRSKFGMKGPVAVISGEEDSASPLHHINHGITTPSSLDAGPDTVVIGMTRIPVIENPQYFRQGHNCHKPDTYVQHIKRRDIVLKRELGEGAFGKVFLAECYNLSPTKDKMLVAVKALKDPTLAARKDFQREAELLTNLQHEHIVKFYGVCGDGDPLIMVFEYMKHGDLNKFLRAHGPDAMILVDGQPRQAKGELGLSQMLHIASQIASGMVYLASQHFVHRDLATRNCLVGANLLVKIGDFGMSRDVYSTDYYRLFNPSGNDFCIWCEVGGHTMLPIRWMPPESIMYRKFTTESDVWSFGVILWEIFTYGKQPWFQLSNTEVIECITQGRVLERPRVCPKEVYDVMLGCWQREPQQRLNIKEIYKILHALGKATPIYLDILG
Sequence of PRKG2 (human) (Q13237 whole entry, looked up): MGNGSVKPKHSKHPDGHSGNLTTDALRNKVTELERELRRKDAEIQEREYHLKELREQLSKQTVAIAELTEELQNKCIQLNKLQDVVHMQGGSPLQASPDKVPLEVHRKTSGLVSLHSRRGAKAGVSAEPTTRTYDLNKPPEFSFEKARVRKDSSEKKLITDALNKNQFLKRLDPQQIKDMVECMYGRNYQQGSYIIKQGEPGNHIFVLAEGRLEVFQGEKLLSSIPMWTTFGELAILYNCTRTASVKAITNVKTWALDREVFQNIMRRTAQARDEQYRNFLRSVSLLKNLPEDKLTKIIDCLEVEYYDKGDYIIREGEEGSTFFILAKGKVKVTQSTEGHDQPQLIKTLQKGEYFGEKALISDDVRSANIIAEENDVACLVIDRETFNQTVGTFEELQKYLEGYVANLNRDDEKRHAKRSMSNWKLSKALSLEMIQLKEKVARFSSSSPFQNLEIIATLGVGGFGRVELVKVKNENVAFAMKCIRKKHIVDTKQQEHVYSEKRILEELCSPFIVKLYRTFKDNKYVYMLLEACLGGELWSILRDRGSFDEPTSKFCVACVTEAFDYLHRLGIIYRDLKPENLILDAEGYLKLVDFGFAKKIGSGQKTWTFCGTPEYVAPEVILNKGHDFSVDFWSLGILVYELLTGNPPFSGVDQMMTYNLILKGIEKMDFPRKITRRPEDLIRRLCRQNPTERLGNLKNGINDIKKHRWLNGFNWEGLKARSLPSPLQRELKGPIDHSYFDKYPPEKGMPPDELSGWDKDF
Sequence of MELK (human) (Q14680 whole entry, looked up): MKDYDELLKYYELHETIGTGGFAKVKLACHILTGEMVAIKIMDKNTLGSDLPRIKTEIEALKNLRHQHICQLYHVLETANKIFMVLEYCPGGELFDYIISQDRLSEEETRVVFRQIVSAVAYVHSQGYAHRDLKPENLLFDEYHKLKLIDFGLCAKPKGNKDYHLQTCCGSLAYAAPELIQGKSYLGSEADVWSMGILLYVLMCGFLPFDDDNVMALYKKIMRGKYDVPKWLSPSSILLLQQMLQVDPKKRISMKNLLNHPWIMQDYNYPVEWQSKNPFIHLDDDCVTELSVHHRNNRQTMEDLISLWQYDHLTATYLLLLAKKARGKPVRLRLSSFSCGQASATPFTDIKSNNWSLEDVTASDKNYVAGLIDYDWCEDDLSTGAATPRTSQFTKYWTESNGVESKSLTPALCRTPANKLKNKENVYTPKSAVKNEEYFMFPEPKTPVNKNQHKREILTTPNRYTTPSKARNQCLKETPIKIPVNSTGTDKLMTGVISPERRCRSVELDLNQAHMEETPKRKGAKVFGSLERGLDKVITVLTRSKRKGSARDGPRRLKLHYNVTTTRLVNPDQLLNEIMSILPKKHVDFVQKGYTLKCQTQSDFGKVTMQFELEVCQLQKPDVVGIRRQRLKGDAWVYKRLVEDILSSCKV

CCCC(=O)Oc1ccc2[nH]c(C(=O)c3cc4ccccc4[nH]3)cc2c1
residual activity (MAPK9 (human)): 76%
residual activity (PAK4 (human)): 87.4%
residual activity (CLK4 (human)): 90.2%
residual activity (KIT (human)): 82.4%
residual activity (WEE1 (human)): 85.8%
residual activity (NTRK3 (human)): 95.9%
residual activity (ADRBK2 (human)): 101%
residual activity (PRKCE (human)): 91%
residual activity (NTRK1 (human)): 98.6%
residual activity (MAPKAPK2 (human)): 92.4%
residual activity (CSNK1A1 (human)): 94%
residual activity (EPHB2 (human)): 98.4%
residual activity (MELK (human)): 96.4%
residual activity (STK16 (human)): 100%
residual activity (SRMS (human)): 104%
residual activity (PRKG2 (human)): 97.6%
residual activity (RPS6KA6 KD1 KD2 (human)): 95.4%
residual activity (FGFR3 (human)): 95.2%
residual activity (PDGFRB (human)): 91.2%
residual activity (MLTK (human)): 104%
residual activity (PLK3 (human)): 98.4%
residual activity (PRKD2 (human)): 91.7%
residual activity (NEK1 (human)): 94.3%
residual activity (AXL (human)): 103%
residual activity (NTRK2 (human)): 89.8%
residual activity (LYN (human)): 103% and 98.7%
residual activity (TLK2 (human)): 97.1%
residual activity (TTK (human)): 85.7%
residual activity (PHKG1 (human)): 93.7%
residual activity (SRC (human)): 97%
residual activity (MYO3B (human)): 98.6%
residual activity (PTK2 (human)): 94.1%
residual activity (PTK6 (human)): 85.4%
residual activity (MAPK14 (human)): 102%
residual activity (NEK2 (human)): 86.8%
residual activity (BRSK1 (human)): 99.5%
residual activity (IRAK4 (human)): 82.7%
residual activity (GRK4 (human)): 93.7%
residual activity (CDK9 CCNT1 (human)): 105%
residual activity (SLK (human)): 98.9%
residual activity (MAPK3 (human)): 87.9%
residual activity (CLK3 (human)): 96.9%

Oc1cccc(-c2nc(N3CCOCC3)c3oc4ncccc4c3n2)c1
residual activity (MAPK9 (human)): 89.4%
residual activity (PAK4 (human)): 90.7%
residual activity (CLK4 (human)): 81.5%
residual activity (KIT (human)): 88.9%
residual activity (WEE1 (human)): 81.6%
residual activity (NTRK3 (human)): 91.1%
residual activity (ADRBK2 (human)): 110%
residual activity (PRKCE (human)): 100%
residual activity (NTRK1 (human)): 94.9%
residual activity (MAPKAPK2 (human)): 97.8%
residual activity (CSNK1A1 (human)): 87.9%
residual activity (EPHB2 (human)): 88.6%
residual activity (MELK (human)): 75.5%
residual activity (STK16 (human)): 91.7%
residual activity (SRMS (human)): 96.2%
residual activity (PRKG2 (human)): 89.2%
residual activity (RPS6KA6 KD1 KD2 (human)): 98.2%
residual activity (FGFR3 (human)): 101%
residual activity (PDGFRB (human)): 99.2%
residual activity (MLTK (human)): 96.2%
residual activity (PLK3 (human)): 94.6%
residual activity (PRKD2 (human)): 93.8%
residual activity (NEK1 (human)): 77.8%
residual activity (AXL (human)): 105%
residual activity (NTRK2 (human)): 90.2%
residual activity (LYN (human)): 102% and 98.3%
residual activity (TLK2 (human)): 102%
residual activity (TTK (human)): 93.3%
residual activity (PHKG1 (human)): 93.3%
residual activity (SRC (human)): 97.2%
residual activity (MYO3B (human)): 81.3%
residual activity (PTK2 (human)): 93.5%
residual activity (PTK6 (human)): 80.8%
residual activity (NEK2 (human)): 88.6%
residual activity (BRSK1 (human)): 91.1%
residual activity (IRAK4 (human)): 104%
residual activity (GRK4 (human)): 102%
residual activity (CDK9 CCNT1 (human)): 105%
residual activity (SLK (human)): 101%
residual activity (MAPK3 (human)): 94.1%
residual activity (CLK3 (human)): 93.1%

c1ccc(-c2n[nH]cc2-c2ccnc3ccccc23)nc1
residual activity (MAPK9 (human)): 98.9%
residual activity (PAK4 (human)): 76.9%
residual activity (CLK4 (human)): 101%
residual activity (KIT (human)): 93.5%
residual activity (WEE1 (human)): 91.1%
residual activity (NTRK3 (human)): 92.7%
residual activity (ADRBK2 (human)): 103%
residual activity (PRKCE (human)): 101%
residual activity (NTRK1 (human)): 102%
residual activity (MAPKAPK2 (human)): 100%
residual activity (CSNK1A1 (human)): 74.6%
residual activity (EPHB2 (human)): 103%
residual activity (MELK (human)): 93.3%
residual activity (STK16 (human)): 100%
residual activity (SRMS (human)): 105%
residual activity (PRKG2 (human)): 89.2%
residual activity (RPS6KA6 KD1 KD2 (human)): 112%
residual activity (FGFR3 (human)): 97.4%
residual activity (PDGFRB (human)): 106%
residual activity (MLTK (human)): 78%
residual activity (PLK3 (human)): 91.7%
residual activity (PRKD2 (human)): 66.9%
residual activity (AXL (human)): 101%
residual activity (NTRK2 (human)): 112%
residual activity (LYN (human)): 100% and 87.8%
residual activity (TLK2 (human)): 98.6%
residual activity (TTK (human)): 97.4%
residual activity (PHKG1 (human)): 94.2%
residual activity (SRC (human)): 94.7%
residual activity (MYO3B (human)): 91.7%
residual activity (PTK2 (human)): 99.3%
residual activity (PTK6 (human)): 70.9%
residual activity (MAPK14 (human)): 96%
residual activity (NEK2 (human)): 97%
residual activity (BRSK1 (human)): 99%
residual activity (IRAK4 (human)): 87.7%
residual activity (GRK4 (human)): 94.3%
residual activity (CDK9 CCNT1 (human)): 80%
residual activity (SLK (human)): 104%
residual activity (MAPK3 (human)): 101%
residual activity (CLK3 (human)): 105%
